From PubChem BioAssay AID652137 (The Scripps Research Institute Molecular Screening Center, 2013)
Calls of active or inactive are those of the source. No rule for the calls is given here.

Biological target: Hepatocyte nuclear factor 4-alpha (Homo sapiens) (UniProt P41235)
Experiment: inhibitors of HNF4 dimer formation – biochemical, luminescence, dose response, round 3, counter-screen for ABHD5-PLIN5 interaction inhibitor project, late-stage follow-up (AID 652137)
Conditions: HNF4 dimerization, luminescence biochemical assay

Sequence of Hepatocyte nuclear factor 4-alpha (Homo sapiens) (P41235 whole entry, looked up): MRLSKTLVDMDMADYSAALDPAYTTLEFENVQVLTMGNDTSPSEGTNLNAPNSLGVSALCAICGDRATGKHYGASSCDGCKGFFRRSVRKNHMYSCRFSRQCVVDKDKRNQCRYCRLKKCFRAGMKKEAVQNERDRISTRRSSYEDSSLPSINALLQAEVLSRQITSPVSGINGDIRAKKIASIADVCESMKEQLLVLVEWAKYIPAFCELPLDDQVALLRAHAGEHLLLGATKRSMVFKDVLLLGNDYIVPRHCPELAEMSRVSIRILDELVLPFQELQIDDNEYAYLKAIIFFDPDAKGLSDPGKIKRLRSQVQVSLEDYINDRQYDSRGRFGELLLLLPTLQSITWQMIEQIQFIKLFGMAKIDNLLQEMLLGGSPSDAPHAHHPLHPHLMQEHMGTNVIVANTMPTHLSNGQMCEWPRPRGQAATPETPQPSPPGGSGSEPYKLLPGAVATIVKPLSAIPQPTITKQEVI

SMILES	IC50
CCCCNC(=O)Nc1ccc2c(c1)N(C)C(=O)c1ccccc1S2	> 39.8 µM (inactive)
CCCCCCNC(=O)Nc1ccc2c(c1)N(C)C(=O)c1ccccc1S2	> 39.8 µM (inactive)
CCCCCNC(=O)Nc1ccc2c(c1)N(C)C(=O)c1ccccc1S2	> 39.8 µM (inactive)
CN1C(=O)c2ccccc2Sc2ccc(NC(=O)NCCCc3ccccc3)cc21	> 39.8 µM (inactive)
CCCCCCCNC(=O)Nc1ccc2c(c1)N(C)C(=O)c1ccccc1S2	> 39.8 µM (inactive)
